We go through six compounds from ChEMBL document CHEMBL5465560, “Selectivity Literature for EUbOPEN Chemogenomic Library” (2024).

The target of assay [1] is Phosphatidylinositol 4,5-bisphosphate 3-kinase catalytic subunit beta isoform (Homo sapiens) (UniProt P42338). In words: Selectivity interaction (Adapta Assay) EUB0001632a PIK3CB. The conditions noted are these: at 10 µM.
Assay [2] concerns the target T1, Non-receptor tyrosine-protein kinase TNK1 (Homo sapiens) (UniProt Q13470).
T1 sequence (whole entry): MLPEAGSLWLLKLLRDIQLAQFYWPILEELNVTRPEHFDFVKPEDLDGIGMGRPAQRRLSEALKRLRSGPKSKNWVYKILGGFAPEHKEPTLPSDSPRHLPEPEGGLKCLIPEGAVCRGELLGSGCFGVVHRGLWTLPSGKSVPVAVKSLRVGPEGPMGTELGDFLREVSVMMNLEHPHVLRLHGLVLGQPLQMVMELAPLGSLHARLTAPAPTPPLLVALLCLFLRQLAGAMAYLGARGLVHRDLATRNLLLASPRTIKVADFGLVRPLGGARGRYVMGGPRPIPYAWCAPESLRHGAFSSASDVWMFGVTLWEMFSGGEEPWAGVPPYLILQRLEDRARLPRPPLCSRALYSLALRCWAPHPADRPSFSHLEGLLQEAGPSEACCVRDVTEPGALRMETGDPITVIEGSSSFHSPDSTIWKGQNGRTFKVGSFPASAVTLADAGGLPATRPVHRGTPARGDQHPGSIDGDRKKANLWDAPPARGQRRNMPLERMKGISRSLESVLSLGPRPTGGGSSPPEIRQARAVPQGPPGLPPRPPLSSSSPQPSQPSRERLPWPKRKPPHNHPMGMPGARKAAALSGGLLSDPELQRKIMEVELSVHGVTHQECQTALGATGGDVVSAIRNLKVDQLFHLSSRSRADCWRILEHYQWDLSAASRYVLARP
As to the kind of experiment: Selectivity interaction (Ambit KINOMEscan and KiNATiv profiling in Jurkat cells) EUB0000090b TNK1. Format: cell-based. The conditions noted are these: at 1 µM.

Assay [3] concerns the target Cyclin-dependent kinase 7 (Homo sapiens, UniProt P50613). As to the kind of experiment: Selectivity interaction (KinomeScan (DiscoverX)) EUB0001049a CDK7. To be noted: at 1 µM.
For assay [4], the target named is T2, Protein kinase C iota type (Homo sapiens) (UniProt P41743).
T2 sequence (whole entry): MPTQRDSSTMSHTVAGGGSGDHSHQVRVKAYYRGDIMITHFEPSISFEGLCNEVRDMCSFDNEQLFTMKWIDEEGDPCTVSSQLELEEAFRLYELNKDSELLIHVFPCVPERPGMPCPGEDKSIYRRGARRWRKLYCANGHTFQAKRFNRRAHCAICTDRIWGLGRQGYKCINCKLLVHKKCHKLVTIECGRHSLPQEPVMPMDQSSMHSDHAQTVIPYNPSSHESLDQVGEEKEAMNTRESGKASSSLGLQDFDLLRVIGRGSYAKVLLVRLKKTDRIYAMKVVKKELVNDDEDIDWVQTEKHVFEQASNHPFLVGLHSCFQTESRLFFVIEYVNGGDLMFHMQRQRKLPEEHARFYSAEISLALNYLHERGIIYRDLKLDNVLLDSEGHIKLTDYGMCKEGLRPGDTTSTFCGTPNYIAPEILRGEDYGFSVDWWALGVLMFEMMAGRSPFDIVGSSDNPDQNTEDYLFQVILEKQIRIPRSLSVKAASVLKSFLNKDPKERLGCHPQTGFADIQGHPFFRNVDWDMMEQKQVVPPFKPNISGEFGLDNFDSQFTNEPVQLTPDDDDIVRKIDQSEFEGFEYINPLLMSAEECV
In words: Selectivity interaction (KinomeScan (DiscoverX)) EUB0000618a PRKCI. To be noted: at 10 µM.

Assay [5] has as its target Transient receptor potential cation channel subfamily M member 6 (Homo sapiens) (UniProt Q9BX84). In words: Selectivity interaction (KinomeScan (DiscoverX)) EUB0000618a TRPM6. To be noted: at 10 µM.
For assay [6], the target named is 5-hydroxytryptamine receptor 2A (Homo sapiens, UniProt P28223). As to the kind of experiment: Selectivity interaction (Panel of kinases, GPCRs, ion channels and transporters (enzymatic assay)) EUB0000266bCl HTR2A.
Chain of 5-hydroxytryptamine receptor 2A (P28223 whole entry): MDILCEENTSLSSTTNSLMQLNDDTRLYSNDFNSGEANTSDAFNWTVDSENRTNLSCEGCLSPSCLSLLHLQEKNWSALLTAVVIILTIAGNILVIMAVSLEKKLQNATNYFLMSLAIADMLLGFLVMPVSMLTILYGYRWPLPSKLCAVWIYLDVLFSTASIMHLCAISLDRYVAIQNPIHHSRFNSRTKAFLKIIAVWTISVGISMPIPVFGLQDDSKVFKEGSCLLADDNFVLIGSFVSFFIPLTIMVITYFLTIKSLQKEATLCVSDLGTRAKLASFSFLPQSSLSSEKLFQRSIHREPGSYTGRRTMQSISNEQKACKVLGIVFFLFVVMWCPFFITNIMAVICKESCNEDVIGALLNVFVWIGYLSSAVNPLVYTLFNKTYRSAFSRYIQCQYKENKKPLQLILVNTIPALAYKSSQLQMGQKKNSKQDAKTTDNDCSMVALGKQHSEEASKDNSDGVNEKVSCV
Assay [7] has as its target T3, Cyclin-dependent kinase 11A (Homo sapiens) (UniProt Q9UQ88).
T3 sequence (whole entry): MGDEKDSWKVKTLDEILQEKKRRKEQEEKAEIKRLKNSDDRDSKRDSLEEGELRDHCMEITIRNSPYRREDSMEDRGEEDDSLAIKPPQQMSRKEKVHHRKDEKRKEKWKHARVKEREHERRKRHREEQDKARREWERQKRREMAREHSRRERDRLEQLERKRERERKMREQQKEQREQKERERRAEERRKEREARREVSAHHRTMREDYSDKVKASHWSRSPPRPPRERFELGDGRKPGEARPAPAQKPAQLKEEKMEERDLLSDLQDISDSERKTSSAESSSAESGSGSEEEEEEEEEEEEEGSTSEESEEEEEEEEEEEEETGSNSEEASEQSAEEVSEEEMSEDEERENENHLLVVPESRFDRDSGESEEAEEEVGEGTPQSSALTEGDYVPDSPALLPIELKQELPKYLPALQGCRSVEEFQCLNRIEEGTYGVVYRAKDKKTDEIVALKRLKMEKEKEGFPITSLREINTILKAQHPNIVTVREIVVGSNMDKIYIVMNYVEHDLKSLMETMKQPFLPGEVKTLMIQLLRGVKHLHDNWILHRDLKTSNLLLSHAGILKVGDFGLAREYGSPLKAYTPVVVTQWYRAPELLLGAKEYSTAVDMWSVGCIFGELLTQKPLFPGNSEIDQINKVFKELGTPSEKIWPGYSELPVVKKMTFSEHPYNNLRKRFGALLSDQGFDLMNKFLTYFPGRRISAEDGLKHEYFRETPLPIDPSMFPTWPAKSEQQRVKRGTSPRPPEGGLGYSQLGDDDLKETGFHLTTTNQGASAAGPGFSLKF
As to the kind of experiment: Selectivity interaction (Kinase panel (KiNativ target engagement assay in Jurkat cells)) EUB0001635a CDK11A. To be noted: Selectivity number of off-targets 0.0, Selectivity number of targets 233.0, Source Knowledge https://www.sciencedirect.com/science/article/pii/S2451945619300674?via%3Dihub, at 1 µM. Format: cell-based.

Each structure is given as a SMILES string.

Chain of Phosphatidylinositol 4,5-bisphosphate 3-kinase catalytic subunit beta isoform (Homo sapiens) (P42338 whole entry, looked up, canonical isoform): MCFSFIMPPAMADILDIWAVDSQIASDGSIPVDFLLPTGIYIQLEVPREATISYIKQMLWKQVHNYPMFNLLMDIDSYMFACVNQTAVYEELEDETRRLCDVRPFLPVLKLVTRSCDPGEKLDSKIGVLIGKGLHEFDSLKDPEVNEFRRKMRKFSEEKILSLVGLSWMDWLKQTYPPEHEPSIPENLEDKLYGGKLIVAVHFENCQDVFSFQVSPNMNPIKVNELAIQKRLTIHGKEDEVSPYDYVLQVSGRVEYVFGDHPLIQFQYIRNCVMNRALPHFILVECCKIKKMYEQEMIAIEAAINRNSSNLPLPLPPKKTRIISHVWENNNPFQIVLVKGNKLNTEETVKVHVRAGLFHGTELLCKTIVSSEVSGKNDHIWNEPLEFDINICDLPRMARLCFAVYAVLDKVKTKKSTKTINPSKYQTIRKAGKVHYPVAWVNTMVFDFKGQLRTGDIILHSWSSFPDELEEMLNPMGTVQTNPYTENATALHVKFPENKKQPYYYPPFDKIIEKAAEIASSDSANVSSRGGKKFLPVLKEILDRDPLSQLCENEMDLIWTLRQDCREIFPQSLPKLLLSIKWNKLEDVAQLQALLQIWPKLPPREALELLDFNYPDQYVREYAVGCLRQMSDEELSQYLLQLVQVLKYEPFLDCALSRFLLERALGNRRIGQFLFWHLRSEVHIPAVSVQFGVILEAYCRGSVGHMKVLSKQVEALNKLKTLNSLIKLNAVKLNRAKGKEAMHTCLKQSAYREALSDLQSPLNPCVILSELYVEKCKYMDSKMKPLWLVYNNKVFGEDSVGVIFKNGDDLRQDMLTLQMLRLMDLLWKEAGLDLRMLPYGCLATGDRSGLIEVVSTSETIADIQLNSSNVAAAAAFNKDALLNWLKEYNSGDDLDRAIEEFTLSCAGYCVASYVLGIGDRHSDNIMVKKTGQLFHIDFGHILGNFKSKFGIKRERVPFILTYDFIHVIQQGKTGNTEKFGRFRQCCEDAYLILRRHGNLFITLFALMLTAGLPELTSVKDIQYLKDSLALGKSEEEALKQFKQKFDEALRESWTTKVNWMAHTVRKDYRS
Chain of Cyclin-dependent kinase 7 (P50613 whole entry): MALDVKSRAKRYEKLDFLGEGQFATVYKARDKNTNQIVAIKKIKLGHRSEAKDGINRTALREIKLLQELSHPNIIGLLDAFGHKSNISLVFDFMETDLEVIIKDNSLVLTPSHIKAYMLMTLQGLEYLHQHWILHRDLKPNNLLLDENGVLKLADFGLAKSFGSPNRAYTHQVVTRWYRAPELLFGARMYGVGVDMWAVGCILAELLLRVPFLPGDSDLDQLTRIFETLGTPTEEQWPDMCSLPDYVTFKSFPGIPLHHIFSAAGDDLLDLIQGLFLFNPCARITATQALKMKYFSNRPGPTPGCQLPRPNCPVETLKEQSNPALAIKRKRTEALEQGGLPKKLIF
Chain of Transient receptor potential cation channel subfamily M member 6 (Homo sapiens) (Q9BX84 whole entry): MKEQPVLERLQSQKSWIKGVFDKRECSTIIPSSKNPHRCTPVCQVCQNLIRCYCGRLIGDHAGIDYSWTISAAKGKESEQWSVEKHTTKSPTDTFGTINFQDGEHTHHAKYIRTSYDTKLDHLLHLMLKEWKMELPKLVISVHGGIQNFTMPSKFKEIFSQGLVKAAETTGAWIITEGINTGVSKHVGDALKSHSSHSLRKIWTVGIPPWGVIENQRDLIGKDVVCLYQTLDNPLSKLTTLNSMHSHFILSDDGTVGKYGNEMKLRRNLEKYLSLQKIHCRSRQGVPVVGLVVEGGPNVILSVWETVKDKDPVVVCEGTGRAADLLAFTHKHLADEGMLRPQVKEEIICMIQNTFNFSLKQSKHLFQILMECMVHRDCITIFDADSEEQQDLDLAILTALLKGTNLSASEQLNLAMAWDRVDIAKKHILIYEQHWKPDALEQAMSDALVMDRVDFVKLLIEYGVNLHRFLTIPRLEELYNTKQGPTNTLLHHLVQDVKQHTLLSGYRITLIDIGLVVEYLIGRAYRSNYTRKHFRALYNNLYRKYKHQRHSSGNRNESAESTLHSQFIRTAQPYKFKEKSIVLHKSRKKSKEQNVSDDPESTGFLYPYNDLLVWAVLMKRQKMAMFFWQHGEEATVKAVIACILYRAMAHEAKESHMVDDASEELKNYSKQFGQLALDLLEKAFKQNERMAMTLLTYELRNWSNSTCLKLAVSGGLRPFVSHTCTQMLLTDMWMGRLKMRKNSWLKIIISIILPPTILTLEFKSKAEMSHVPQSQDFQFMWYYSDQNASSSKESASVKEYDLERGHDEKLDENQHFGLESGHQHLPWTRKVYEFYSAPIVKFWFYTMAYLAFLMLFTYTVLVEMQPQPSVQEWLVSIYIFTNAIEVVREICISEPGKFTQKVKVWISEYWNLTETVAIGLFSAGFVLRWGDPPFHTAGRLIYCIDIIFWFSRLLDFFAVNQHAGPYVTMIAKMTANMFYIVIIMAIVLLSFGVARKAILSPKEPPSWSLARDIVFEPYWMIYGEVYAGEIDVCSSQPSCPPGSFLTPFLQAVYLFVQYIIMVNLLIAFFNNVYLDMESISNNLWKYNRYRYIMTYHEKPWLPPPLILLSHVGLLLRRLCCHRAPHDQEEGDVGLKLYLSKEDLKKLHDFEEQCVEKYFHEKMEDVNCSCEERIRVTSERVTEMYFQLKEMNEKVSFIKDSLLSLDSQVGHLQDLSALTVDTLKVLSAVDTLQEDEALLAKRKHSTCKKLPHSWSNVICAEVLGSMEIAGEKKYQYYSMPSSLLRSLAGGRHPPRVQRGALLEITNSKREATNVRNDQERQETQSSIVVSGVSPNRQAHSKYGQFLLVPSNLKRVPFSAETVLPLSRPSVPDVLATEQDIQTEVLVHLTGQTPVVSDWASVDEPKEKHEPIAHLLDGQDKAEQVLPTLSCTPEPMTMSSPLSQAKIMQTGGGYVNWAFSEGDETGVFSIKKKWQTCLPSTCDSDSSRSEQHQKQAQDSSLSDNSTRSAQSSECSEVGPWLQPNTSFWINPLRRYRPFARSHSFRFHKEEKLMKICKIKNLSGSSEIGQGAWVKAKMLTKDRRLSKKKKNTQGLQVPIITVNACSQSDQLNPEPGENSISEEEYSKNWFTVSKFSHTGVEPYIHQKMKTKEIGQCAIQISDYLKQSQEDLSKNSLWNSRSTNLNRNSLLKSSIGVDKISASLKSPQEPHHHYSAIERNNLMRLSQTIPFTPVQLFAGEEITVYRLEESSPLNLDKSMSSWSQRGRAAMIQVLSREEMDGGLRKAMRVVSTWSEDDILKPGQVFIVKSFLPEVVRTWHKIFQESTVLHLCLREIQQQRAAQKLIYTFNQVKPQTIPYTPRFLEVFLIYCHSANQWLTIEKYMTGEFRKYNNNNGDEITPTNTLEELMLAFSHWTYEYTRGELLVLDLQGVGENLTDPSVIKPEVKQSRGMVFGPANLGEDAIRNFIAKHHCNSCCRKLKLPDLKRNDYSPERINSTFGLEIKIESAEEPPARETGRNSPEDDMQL

`Cn1cc(-n2cnc3c(NCc4nc5cc(Cl)c(Cl)cc5[nH]4)nc(N4CCOCC4)nc32)cn1` gave a % of inhibition in assay [1] of 11.6%. For the compound `CN(C)C/C=C/C(=O)Nc1ccc(C(=O)N2CCCC(Nc3ncc(Cl)c(-c4c[nH]c5ccccc45)n3)C2)cc1` (configuration not stated), the % of control in assay [2] turned out to be 96%. The compound `COc1cc(Nc2nc(C)cc(-c3cnn4nc(OC)ccc34)n2)cc(C(F)(F)F)c1` came in with a % of control in assay [3] of 73%. As to `O[C@H]1CC[C@H](Nc2ncc3nc(Nc4c(F)cc(F)cc4F)n([C@H]4CCOC4)c3n2)CC1`, the % of control in assay [4] and in assay [5] was 100% in each case.

Compound `CCn1c(-c2nc3cc(C(=O)N4CCCC(N)C4)ccc3n2C)cc2ccccc21` (configuration not stated) came in with a pXC50 in assay [6] below 4.4 M. Turning to `C=CC(=O)Nc1ccc(C(=O)Nc2[nH]nc3c2CN(C(=O)N[C@H](CN(C)C)c2ccccc2)C3(C)C)cc1`, the % of engagement in assay [7] is -0.8%.
